These results are taken from article PMC10275055, “Preventing recurrence in Sonic Hedgehog Subgroup Medulloblastoma using the OLIG2 inhibitor CT-179” (Research Square, 2023).

In assay [1] the target is T1, Discoidin Domain Receptor Tyrosine Kinase 2 (DDR2) (Homo sapiens, UniProt Q16832).
T1 sequence (Q16832 22-855): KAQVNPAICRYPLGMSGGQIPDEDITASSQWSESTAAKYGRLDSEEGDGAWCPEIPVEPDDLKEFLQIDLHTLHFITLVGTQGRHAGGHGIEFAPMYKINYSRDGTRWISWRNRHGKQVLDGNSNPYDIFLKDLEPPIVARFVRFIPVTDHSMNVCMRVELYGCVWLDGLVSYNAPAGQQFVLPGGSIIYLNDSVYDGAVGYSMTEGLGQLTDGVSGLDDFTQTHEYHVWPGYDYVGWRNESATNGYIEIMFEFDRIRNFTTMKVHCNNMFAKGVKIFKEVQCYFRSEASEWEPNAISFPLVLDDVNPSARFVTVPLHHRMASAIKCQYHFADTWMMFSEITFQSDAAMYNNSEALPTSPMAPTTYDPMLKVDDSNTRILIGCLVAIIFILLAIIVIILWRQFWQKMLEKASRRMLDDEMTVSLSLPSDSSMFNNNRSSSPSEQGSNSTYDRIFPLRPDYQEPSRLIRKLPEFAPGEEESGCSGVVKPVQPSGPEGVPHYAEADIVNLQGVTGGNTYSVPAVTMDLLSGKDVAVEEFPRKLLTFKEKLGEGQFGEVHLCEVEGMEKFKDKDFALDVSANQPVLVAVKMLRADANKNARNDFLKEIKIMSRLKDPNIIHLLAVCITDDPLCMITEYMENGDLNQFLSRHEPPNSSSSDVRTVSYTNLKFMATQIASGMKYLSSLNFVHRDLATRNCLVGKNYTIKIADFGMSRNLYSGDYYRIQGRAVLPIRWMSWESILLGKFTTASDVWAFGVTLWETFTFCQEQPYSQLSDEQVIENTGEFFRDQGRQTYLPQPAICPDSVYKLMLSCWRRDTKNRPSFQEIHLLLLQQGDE
In words: Kinase profiling (KINOMEscan / SelectScreen), DDR2. Particulars: ATP equal to Km. Format: biochemical. Here is the method:
Effect of CT-179 on protein kinase activity was evaluated using the Thermofisher Scientific SelectScreen Kinase Profiling Service. Over 400 human protein kinases were tested in the presence of 1 μM final concentration of CT-179 at an ATP concentration equal to the known ATP Km for each kinase. The experiment was done by Curtana Pharmaceuticals. Data is presented as percentage of inhibition of enzyme activity. Software CORAL was used to make the kinome tree, which is available from: http://phanstiel-lab.med.unc.edu/CORAL/.

The subject of a further assay is HEK293 cells. Briefly: Cell viability, OLIG2-negative HEK293. Format: cell-based, human. Particulars: HEK293, does not express OLIG2. The procedure: (§1) Cell proliferation was determined by a CellTiter 96® Non-Radioactive Cell Proliferation Assay (Promega) kit. Absorbance at 490 nm was measured on a Biotek PowerWave (Biotek, USA) plate scanner to obtain raw data. Average absorbance from triplicate wells were plotted against concentration using GraphPad Prism software v.7.0 (GraphPad software). At the indicated time points, cells were stained using FITC-conjugated Annexin V and Annexin V binding buffer (BD Pharmingen™) according to the manufacturer’s instructions. Annexin V or propidium iodide (PI)-positive cells were analyzed using a Fortessa 5 Flow Cytometer (Becton Dickinson) and data was analyzed using FlowJo® software (Tree Star).

Another assay has as its system Daoy cells. In words: Apoptosis and cell cycle analysis in Daoy cells. Format: cell-based, human. Particulars: 1 μM. The procedure: as §1
Cell cycle analysis was performed as descried previously. Cells were fixed with 70% ice-cold ethanol and subsequently stained with PI and analyzed using a Fortessa 5 Flow Cytometer (Becton Dickinson) and data was analyzed using FlowJo® software (Tree Star).

SMILES strings stand for the structures.

Consider `Cc1cc(NCCCN(C)C)nc(NC(=O)Nc2ccc(Cl)c(Cl)c2)n1` [CT-179], for which, in assay [1], the inhibition at 1 µM was determined as 80%. Moreover, the growth suppression result in the assay on HEK293 cells is on record as “not suppressed”. Moreover, the “apoptosis (cleaved CASPASE-3, Annexin V)” value in the assay on Daoy cells was “increased apoptosis”. The cell cycle effect entry in the assay with Daoy cells (24 hours, single therapy) is reported as “G2/M phase arrest”.

One may read the inhibition as the share of the control response that was lost under treatment.
